Data on 56 molecules can be found in ChEMBL document CHEMBL6078659, “Comprehensive Insights into the Development of Antitoxoplasmosis Drugs: Current Advances, Obstacles, and Future Perspectives” (J Med Chem, 2024).

Starred links: 1 amine or outer side, 2 acyl side, 3 side chain; linkers in the order of their positions; H or OH if unused. Non-standard residues stand in square brackets, D forms with d. Residues, ends and D or L forms follow the SMILES beside them. X1 = CC[C@@H](C)[C@@H](O[*:1])C(=O)[*:2]; NMeVal(β-OH) = CN[C@H](C(=O)O)C(C)(C)O; NMeF = CN[C@@H](Cc1ccccc1)C(=O)O; NMeV = CN[C@H](C(=O)O)C(C)C

One experiment has as its system Toxoplasma gondii. Briefly: Antiparasitic activity against Toxoplasma gondii assessed as parasitic growth inhibition. The experiment is classed as functional, organism-based.
For `O=C1C2=C(C(=O)c3ccccc31)[C@H]1Oc3ccc(Cl)cc3[C@H]1CO2`, the IC50 was under 10000 nM.

In the case of `CC(C)CCCc1ccc2c(c1)C(=O)C=C(N1CCCC1)C2=O`, the 50% inhibitory concentration (IC50) was 320 nM.

Consider `COc1c(N2C[C@@H]3CCCN[C@@H]3C2)c(F)cc2c(=O)c(C(=O)O)cn(C3CC3)c12` [MOXIFLOXACIN], for which the IC50 is 5.1 µg/mL.

As to `C/C=C/C1=C(O)C(=O)c2ccccc2C1=O`, the IC50 stood at 3010 nM.

Consider `N[C@@H]1[C@H]2CN(c3nc4c(cc3F)c(=O)c(C(=O)O)cn4-c3ccc(F)cc3F)C[C@@H]12` [TROVAFLOXACIN], for which the concentration for half-maximal inhibition (IC50) was determined as 0.4 µg/mL.

As to `CC(C)=CCC1=C(O)C(=O)c2ccccc2C1=O` [LAPACHOL], the 50% inhibitory concentration (IC50) amounted to 4880 nM.

Take `O=C1C2=C(C(=O)c3ccccc31)[C@H]1Oc3ccccc3[C@H]1CO2` [PTEROCARPANQUINONE]: the IC50 was 2500 nM.

As for `Cc1c(F)c(N2CCNC(C)C2)cc2c1c(=O)c(C(=O)O)cn2C1CC1` (configuration not stated) [GREPAFLOXACIN], the IC50 worked out at 2.4 µg/mL.

Consider `O=C1C2=C(C(=O)c3ccccc31)[C@H]1Oc3ccc(Br)cc3[C@H]1CO2`, for which the IC50 worked out at 2600 nM.

Take `O=C1C(O)=C([C@H]2CC[C@H](c3ccc(Cl)cc3)CC2)C(=O)c2ccccc21` [ATOVAQUONE]: the IC50 is 70 nM.

For `O=C(NNC(=S)Nc1ccc(F)cc1)c1cccs1`, the IC50 amounted to 33200 nM.

With `COc1c(N2CCNC(C)C2)c(F)cc2c(=O)c(C(=O)O)cn(C3CC3)c12` (configuration not stated) [GATIFLOXACIN], the 50% inhibitory concentration (IC50) was determined as 4.1 µg/mL.

The subject of another experiment is Toxoplasma gondii. In words: Antiparasitic activity against Toxoplasma gondii. Type of experiment: functional, organism-based.
Take `Oc1ccc(/C=C/c2cc(O)cc(O)c2)cc1` [RESVERATROL]: the IC50 is 54600 nM.

As to `CC(C)=CCC/C(C)=C/CO` [GERANIOL], the midpoint of inhibition, the IC50, lay at 4 µg/mL.

`COc1cc(/C=C/C(=O)C(=Cc2ccc(F)c(F)c2)C(=O)/C=C/c2ccc(O)c(OC)c2)ccc1O` had an IC50 of 800 nM.

`COc1ccc(/C=C/C(=O)C(=Cc2ccc(F)c(F)c2)C(=O)/C=C/c2ccc(OC)c(OC)c2)cc1OC`: the concentration for half-maximal inhibition (IC50) came out at 330 nM.

`CCCCCCCCCCCCCCCCC1(C)SC(=O)C(Cc2ccccc2)=C1O` (configuration not stated) displayed an IC50 of 6000 nM.

As for `COc1cc(/C=C/C(=O)CC(=O)/C=C/c2ccc(O)c(OC)c2)ccc1O` [CURCUMIN], half-maximal inhibition (IC50) was put at 38300 nM.

`COc1cc(C=O)ccc1O` [VANILLIN] gave an IC50 of 645 µg/mL.

For `CCCCCCCCCCCCCCCCC1(C)SC(=O)C(CCC)=C1O` (configuration not stated), the half-inhibitory concentration (IC50) was determined as 2000 nM.

In turn, `COc1cc(C2c3cc(c(O)cc3O)C(c3ccc(O)c(OC)c3)c3cc(c(O)cc3O)C(c3ccc(O)c(OC)c3)c3cc(c(O)cc3O)C(c3ccc(O)c(OC)c3)c3cc2c(O)cc3O)ccc1O` (configuration not stated) yielded a concentration for half-maximal inhibition (IC50) of over 2000 µg/mL.

Molecule `Oc1cc(Cl)ccc1Oc1ccc(Cl)cc1Cl` [TRICLOSAN] had an IC50 of 3000 nM.

In the next experiment the test system is Toxoplasma gondii. In words: Antiparasitic activity against Toxoplasma gondii RH infected in human HFF cells. The experiment is classed as functional, organism-based.
Molecule `CCCCCCCCCCCCc1c(C)n(O)c2ccccc2c1=O` displayed a half-maximal inhibitory concentration (IC50) of 0.8 nM.

Molecule `C=CC(C)(O)CCC=C(C)C` (configuration not stated) [LINALOOL] returned an IC50 of 4.48 µg/mL.

As for `C=C(C)C1CC=C(C)CC1` (configuration not stated), the midpoint of inhibition, the IC50, lay at 241 µg/mL.

Consider `Cc1[nH]c2c(c(=O)c1-c1ccc(Oc3ccc(OC(F)(F)F)cc3)cc1)CCCC2`, for which the IC50 was determined as 0.12 nM.

`C[C@@H]1CC[C@H]2[C@@H](C)C(=O)O[C@@H]3O[C@@]4(C)CC[C@@H]1[C@]32OO4` [ARTEMISININ] returned an IC50 of 1700 nM.

Molecule `CCCCCCCCCCCCc1c(C)c(=O)c2ccccc2n1O` [COMPOUND A] showed an IC50 of 0.4 nM.

Regarding `Cc1nc[nH]c1-c1nnc(Nc2ccc(I)cc2)s1`, the IC50 is 4.76 µg/mL.

In the case of `O=C1C2=C(C(=O)c3ccccc31)[C@H]1Oc3ccc(Cl)cc3[C@H]1CO2`, the concentration for half-maximal inhibition (IC50) was under 1000 nM.

Take `CC(C)=CCC/C(C)=C\C=O`: the half-inhibitory concentration (IC50) is 24 µg/mL.

Molecule `CC(C)CCCc1ccc2c(c1)C(=O)C=C(N1CCCC1)C2=O` showed a concentration for half-maximal inhibition (IC50) of 320 nM.

`C=C(C)C1CC=C(C)C(=O)C1` (configuration not stated) [CARVONE] came in with an IC50 of 16.1 µg/mL.

Turning to `C/C=C/C1=C(O)C(=O)c2ccccc2C1=O`, the 50% inhibitory concentration (IC50) stood at 3010 nM.

In turn, `CC1=C(c2nccs2)O[C@@H]2O[C@@]3(C)CC[C@H]4[C@H](C)CC[C@@H]1[C@@]24OO3` came in with a 50% inhibitory concentration (IC50) of 1000 nM.

Molecule `CC1=CCC(C(C)(C)O)CC1` (configuration not stated) yielded an IC50 of 4.4 µg/mL.

`Cc1[nH]c2cc(F)cc(F)c2c(=O)c1-c1ccc(Oc2ccc(OC(F)(F)F)cc2)cc1` yielded a concentration for half-maximal inhibition (IC50) of 5 nM.

`Oc1ccccc1` [PHENOL] displayed an IC50 of 4.77 µg/mL.

In the case of `C/C(=N\Nc1nc(-c2ccc([N+](=O)[O-])cc2)cs1)c1ccc(Nc2nc(N)nc(N)n2)cc1`, the IC50 worked out at 14.9 µg/mL.

Molecule `CC(C)=CCC1=C(O)C(=O)c2ccccc2C1=O` [LAPACHOL] registered an IC50 of 0.4 µg/mL.

`COC(=O)Cn1c(C(=O)NS(=O)(=O)C2=Cc3ccccc3C2)cc2cc(OC)ccc21`: the IC50 turned out to be 130 nM.

Turning to `O=C1C2=C(C(=O)c3ccccc31)[C@H]1Oc3ccccc3[C@H]1CO2` [PTEROCARPANQUINONE], it took 2500 nM to reach half-maximal inhibition (IC50).

As for `O=C1C2=C(C(=O)c3ccccc31)[C@H]1Oc3ccc(Br)cc3[C@H]1CO2`, it took 2600 nM to reach half-maximal inhibition (IC50).

`COC(=O)C1C(C)=CCCC1(C)C` (configuration not stated) registered an IC50 of 242 µg/mL.

For a further experiment, the target named is T1, Bifunctional dihydrofolate reductase-thymidylate synthase (Toxoplasma gondii, UniProt Q07422).
T1 sequence (Q07422 whole entry): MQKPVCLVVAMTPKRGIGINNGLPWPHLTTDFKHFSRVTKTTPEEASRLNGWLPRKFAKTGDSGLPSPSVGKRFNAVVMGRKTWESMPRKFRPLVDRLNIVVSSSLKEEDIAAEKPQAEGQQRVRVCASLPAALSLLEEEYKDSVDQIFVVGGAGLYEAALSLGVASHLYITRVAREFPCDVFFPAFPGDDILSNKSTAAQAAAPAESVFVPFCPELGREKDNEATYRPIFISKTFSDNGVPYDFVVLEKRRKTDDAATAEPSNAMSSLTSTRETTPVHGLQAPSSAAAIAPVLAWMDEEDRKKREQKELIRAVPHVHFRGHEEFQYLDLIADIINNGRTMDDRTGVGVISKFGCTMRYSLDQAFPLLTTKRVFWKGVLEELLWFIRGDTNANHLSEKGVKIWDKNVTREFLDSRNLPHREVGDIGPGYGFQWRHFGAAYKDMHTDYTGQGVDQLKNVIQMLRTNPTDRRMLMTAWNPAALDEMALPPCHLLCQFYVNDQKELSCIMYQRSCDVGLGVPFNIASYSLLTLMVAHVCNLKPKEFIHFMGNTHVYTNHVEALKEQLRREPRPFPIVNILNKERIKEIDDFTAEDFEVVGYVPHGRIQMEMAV
In words: Inhibition of Toxoplasma gondii Dihydrofolate reductase.
Molecule `CC1(C)N=C(N)N=C(N)N1OCCCOc1ccc(OC(F)(F)F)cc1Cl` displayed an IC50 of 20 nM.

In turn, `O=C(c1ccccc1O)c1[nH]c(Cl)c(Cl)c1-n1c(C(=O)c2ccccc2O)cc(Cl)c1Cl` registered a half-inhibitory concentration (IC50) of 310 nM.

Molecule `O=C(c1cc(Br)c(F)[nH]1)c1cc(Cl)cc(Cl)c1O` returned a 50% inhibitory concentration (IC50) of 170 nM.

For the molecule `O=c1cc(-c2cccc3c2Sc2ccccc2S3)oc(N2CCOCC2)c1` [KU-55933], inhibition was half-maximal at 2.15 nM (IC50).

`CC[C@@H](C)[C@H]1OC(=O)[C@H](C(C)(C)O)N(C)C(=O)[C@H](CC(C)C)NC(=O)[C@H](C(C)C)N(C)C(=O)[C@H]([C@@H](C)CC)NC(=O)[C@@H]2CCCN2C(=O)[C@H](Cc2ccccc2)N(C)C(=O)[C@H](Cc2ccccc2)NC(=O)[C@H](C(C)C)N(C)C1=O` [BASIFUNGIN] (cyclo(F[NMeF]PI[NMeV]L[NMeVal(β-OH)][X1][NMeV])) had an IC50 of 300 nM.

Consider `Cc1ccc(CSc2ncnc3c2ncn3[C@@H]2C[C@H](CO)[C@@H](O)[C@H]2O)cc1`, for which the 50% inhibitory concentration (IC50) was found to be 11.9 nM.

Take `O=C(c1ccccc1O)c1[nH]c(Cl)c(Cl)c1-n1c(C(=O)c2ccc(Cl)cc2O)cc(Cl)c1Cl`: the half-inhibitory concentration (IC50) was found to be 160 nM.

`Cc1cc(C)c(O)c(C(=O)c2cc(Br)c(Br)[nH]2)c1` registered a half-maximal inhibitory concentration (IC50) of 90 nM.

A further experiment relates to Toxoplasma gondii. Briefly: Antiparasitic activity against Toxoplasma gondii RH. Type of experiment: functional, organism-based.
`C=C(C)[C@@H]1CC[C@]2(CO)CC[C@]3(C)[C@H](CC[C@@H]4[C@@]5(C)CCC(=O)C(C)(C)[C@@H]5CC[C@]43C)[C@@H]12` [BETULONE] showed a half-inhibitory concentration (IC50) of 2700 nM.

`CC1(C)CC[C@]2(C(=O)O)CC[C@]3(C)C(=CC[C@@H]4[C@@]5(C)CC[C@H](O)[C@@](C)(CO)[C@@H]5CC[C@]43C)[C@@H]2C1` [HEDERAGENIN] displayed an IC50 of 548000 nM.

`C/C=C/c1cc(OC)c2c(c1)[C@@H](C)[C@H](c1ccc3c(c1)OCO3)O2` [LICARINE B] registered an IC50 of 14 µg/mL.

The molecule `Oc1ccc(-c2ccc3c(O)cc(O)cc3[o+]2)cc1` registered a concentration for half-maximal inhibition (IC50) of 1.08 µg/mL.

`C[C@H]1[C@H](C)CC[C@]2(C(=O)Nc3nnn[nH]3)CC[C@]3(C)C(=CC[C@@H]4[C@@]5(C)CCC(=O)C(C)(C)[C@@H]5CC[C@]43C)[C@H]12` (single isomer, unassigned) registered a 50% inhibitory concentration (IC50) of 219000 nM.

With `COc1cc(-c2cc(=O)c3c(O)cc(O)cc3o2)cc(OC)c1O` [TRICIN], 12.9 µg/mL corresponded to half-maximal inhibition (IC50).

`COc1cc(OC)c2ccc(-c3ccc(O)cc3)[o+]c2c1` yielded an IC50 of 0.53 µg/mL.

`C=CCc1cc(OC)c(O[C@@H](C)[C@H](O)c2ccc(O)c(OC)c2)c(OC)c1`: the half-maximal inhibitory concentration (IC50) came out at 32.4 µg/mL.

As to `COc1cc(O)c2ccc(-c3ccc(O)cc3)[o+]c2c1`, the midpoint of inhibition, the IC50, lay at 1.48 µg/mL.

In the case of `Oc1cc(O)c2ccc(-c3ccc(O)c(O)c3)[o+]c2c1` [LUTEOLINIDIN], 0.66 µg/mL corresponded to half-maximal inhibition (IC50).

For orientation: IC50 means the concentration at which inhibition is half-maximal.
